Results as given in patent US8133881B2, “Carbohydrate conjugates to prevent abuse of controlled substances” (Shire LLC, priority 2003, dated 2012).

Columns and labels:
[1] = Oral bioavailability of Hydrocodone vs. Galactose-Hydrocodone
[2] = Intranasal bioavailability of Hydrocodone vs. Galactose Hydrocodone
[3] = Kitchen test stability of conjugate (release of hydrocodone on heating in pH solutions); type: physicochemical; details: for Percent Hydrocodone released: 80-90° C.
Method: To determine the accessibility of active narcotic from the synthetic conjugates, an attempt was made to release the narcotic from its conjugate. In a kitchen test, we determined the stability of the conjugates when subjected to conditions that would be available to any drug addict. Thus, the kitchen test is a model of “street-safeness” for the narcotics conjugates. The conjugates were heated in a water bath (80-90° C.) in a pH range (1-12) over a 1 hour time course. This pH range constitutes about any solution that can be found commercially at any grocery or drug store. The release of the narcotic from the conjugate was monitored by HPLC and quantified with a dose-response calibration curve of the parent narcotic.
Using only solutions that would be available to an addict, conjugates were dissolved in water. Water insoluble conjugates were either (a) dissolved in a minimum amount (≦5% v/v) of organic solvent [e.g., DMSO, methanol, or ethanol], (b) added as a suspension to the assay, or (c) dissolved completely in chloroform, and aliquoted to a test tube where the chloroform is evaporated, leaving only a known amount of conjugate. Upon preparation of the conjugate, the conjugate is added to the various pH solutions and heated for 0, 5, 15, or 60 minutes. At the indicated time point, each test tube was removed from the water bath and neutralized with a chilled phosphate buffer (100 mM, pH 7, 4° C.).
The kitchen test proceeds as follows: • 1. pH solutions [1, 4, 7, 9, 12] prepared with HPLC grade H2O and titrated with NaOH or HCl • 2. prepare hot water bath, keeping temperature at 80-90° C. • 3. conjugates prepared at a concentration of 1 mg/ml as indicated above • 4. 250 μl of conjugate added to 750 μl of pH solutions (final assay volume is 1 ml; if conjugate has been evaporated from CHCl3, add 1 ml of pH solution to test tube) • 5. immediately following the addition of conjugate to pH solution, place test tube in hot water bath (80-90° C.) • 6. at indicated time point, remove test tubes from heat and neutralize with 1 ml of chilled phosphate buffer [0 time point is not heated, but immediately neutralized with phosphate buffer after the addition of conjugate to each pH solution] • 7. before aliquoting each sample for HPLC analysis, the volume of each tube is adjusted to 2 ml to account for changes in concentration from evaporation
Following HPLC analysis, the amount of released narcotic was extrapolated from a calibration curve of the parent drug and plotted as % narcotic released (w/w, based upon theoretical loading of conjugated species) vs. time.

[4] = Intranasal bioavailability of Hydrocodone vs. Ribose Hydrocodone
[5] = Intravenous bioavailability of Hydrocodone vs. Ribose Hydrocodone
[6] = Oral bioavailability of Hydrocodone vs. Ribose-Hydrocodone (serum levels)

COc1ccc2c3c1OC1C(OC(=O)OC[C@H]4O[C@H](O)[C@H](O)[C@@H](O)[C@H]4O)=CCC4[C@@H](C2)[N@@H+](C)CC[C@]314.[Cl-] (some centres unmarked) [Galactose-Hydrocodone, Galacto-Hydrocodone]
Bioavailability compared to Hydrocodone-Bitartarate [1]: approached that of Hydrocodone-Bitaratarate | Bioavailability compared to Hydrocodone-Bitartarate [2]: marginally decreased

COc1ccc2c3c1OC1C(OC(=O)OC[C@H]4OC(O)C(O)[C@H]4O)=CCC4[C@@H](C2)[N@@H+](C)CC[C@]314.[Cl-] (some centres unmarked) [Ribose-Hydrocodone, Ribo-Hydrocodone]
Percent Hydrocodone released ([3]; pH 1, 5 minutes, relative to zero hour level of free Hydrocodone): 8% | Percent Hydrocodone released ([3]; pH 1, 15 minutes, relative to zero hour level): 18% | Percent Hydrocodone released ([3]; pH 1, 60 minutes, relative to zero hour level): 27.8% | Percent Hydrocodone released ([3]; pH 4, 5 minutes, relative to zero hour level): 11% | Percent Hydrocodone released ([3]; pH 4, 15 minutes, relative to zero hour level): 12.6% | Percent Hydrocodone released ([3]; pH 4, 60 minutes, relative to zero hour level): 19.6% | Percent Hydrocodone released ([3]; pH 7, 5 minutes, relative to zero hour level): 12% | Percent Hydrocodone released ([3]; pH 7, 15 minutes, relative to zero hour level): 16% | Percent Hydrocodone released ([3]; pH 7, 60 minutes, relative to zero hour level): 23.4% | Percent Hydrocodone released ([3]; pH 9, 5 minutes, relative to zero hour level): 9% | Percent Hydrocodone released ([3]; pH 9, 15 minutes, relative to zero hour level): 11% | Percent Hydrocodone released ([3]; pH 9, 60 minutes, relative to zero hour level): 21% | hydrocodone released from the conjugate ([3]; pH 12): less than half | Percent Hydrocodone released ([3]; pH 12, 5 minutes, relative to zero hour level): 44% | Percent Hydrocodone released ([3]; pH 12, 15 minutes, relative to zero hour level): 33% | Percent Hydrocodone released ([3]; pH 12, 60 minutes, relative to zero hour level): 41.1% | amount of hydrocodone released ([3]; pHs other than pH 12, after one hour at 90° C.): ≤ 27.8% | Bioavailability compared to Hydrocodone-Bitartarate [4]: decreased | Bioavailability compared to Hydrocodone-Bitartarate [5]: decreased | clearance rate [5]: increased clearance rate | Bioavailability compared to Hydrocodone-Bitartarate [6]: approximately equal
